Laboratory results as given in article PMC6324813, “Biological evaluation of isoflavonoids from Genista halacsyi using estrogen-target cells: Activities of glucosides compared to aglycones” (PLoS ONE, 2019).
Where two headings read alike, the source gives them in different places.

Key:
Ishikawa cells = experiment: Induction of AlkP expression in Ishikawa cells; format: cell-based, human; conditions: for Induction of Alkaline Phosphatase Expression (Ishikawa cells) AUC (%): % of AUC of luciferase response of archetypal 3, 4, 5 or 8 up to 0.3, 10, 1.0 and 3.0 μM; for Ratio of AUC (AlkP / Lucif): AUCAlkP / AUCluciferase; for EC (25% of 0.1 nM E2 effect) / EC50: Homo sapiens, Ishikawa; for EC (25% of 0.1 nM E2 effect) / Induction of AlkP expression (Ishikawa cells) Agonism at 1μΜ, class: 72 h; for EC (25% of 0.1 nM E2 effect): concentration required to achieve 25% of the effect of 0.1 nM E2, read-out: Induction of Alkaline Phosphatase Expression (Ishikawa cells) EC25E2; for EC50: read-out: Induction of Alkaline Phosphatase Expression (Ishikawa cells) EC50E2; for Induction of AlkP expression (Ishikawa cells) Agonism at 1μΜ, class: compounds 1 μM
Method: Induction of AlkP expression of Ishikawa cells is considered as a reliable in vitro measure of estrogenic activity. Assessment of AlkP expression in Ishikawa cells was carried as already described. Briefly, the cells were plated in 96-well plates at a density of 12,000 cells per well in phenol-red-free MEM supplemented with 1 μg/mL insulin and 5% DCC-FBS. […] Data on the dependence of AlkP activity on isoflavonoid concentration were curve fitted using SigmaPlot10 (SPSS Inc) and the numerical data of curve fitting were used to determine AUC as described above, using for the calculation of AUC of a particular AlkP response the very same concentration used for the respective luciferase response. The AUC of AlkP responses of the isoflavonoids of a group were expressed as % of the AUC of the luciferase response of the respective archetypal isoflavone.

MCF-7 cells = experiment: MCF-7 cell proliferation (MTT); format: cell-based, human; conditions: for Induction of cell proliferation (MCF-7 cells) Agonism at 1μΜ, class: compounds 1 μM, 72 h
Method: Test compound effects on the proliferation of MCF-7 and MDA-MB-231 cells were assessed as previously described.

ERα [1] = molecular target: T1, ERα (Homo sapiens, UniProt P03372); experiment: ER binding competitor assay (fluorescent estrogen ES2), ERα; set-up: purchased Invitrogen; conditions: RBA = (IC50 estradiol/IC50 compound) × 100; ES2 1 nM; estradiol set equal to 100
T1 sequence (P03372 1-595): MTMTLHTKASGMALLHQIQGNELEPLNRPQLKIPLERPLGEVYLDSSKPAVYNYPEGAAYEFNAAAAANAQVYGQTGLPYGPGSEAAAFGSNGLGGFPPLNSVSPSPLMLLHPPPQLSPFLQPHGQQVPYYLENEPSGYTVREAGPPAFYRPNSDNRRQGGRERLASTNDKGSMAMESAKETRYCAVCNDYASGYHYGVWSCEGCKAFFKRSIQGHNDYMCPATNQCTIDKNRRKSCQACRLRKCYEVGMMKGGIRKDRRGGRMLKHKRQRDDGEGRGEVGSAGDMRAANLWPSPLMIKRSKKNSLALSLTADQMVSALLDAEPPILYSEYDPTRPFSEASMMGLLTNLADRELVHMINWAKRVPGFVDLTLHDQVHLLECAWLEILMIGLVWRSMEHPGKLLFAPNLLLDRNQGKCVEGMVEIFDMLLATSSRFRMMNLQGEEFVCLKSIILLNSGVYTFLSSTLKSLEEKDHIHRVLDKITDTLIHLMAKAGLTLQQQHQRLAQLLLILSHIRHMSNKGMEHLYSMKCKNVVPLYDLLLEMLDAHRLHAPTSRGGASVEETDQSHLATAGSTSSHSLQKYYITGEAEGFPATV

ERβ [2] = molecular target: T2, ERβ (Homo sapiens, UniProt Q92731); experiment: ER binding competitor assay (fluorescent estrogen ES2), ERβ; set-up: purchased Invitrogen; conditions: for RBAβ / RBAα: ERβ-binding selectivity; for RBAβ: RBA = (IC50 estradiol/IC50 compound) × 100, ES2 1 nM, estradiol set equal to 100
ERβ [3] = molecular target: T2, ERβ; experiment: ERE-dependent luciferase gene transcription in HEK:ERβ cells; format: cell-based; set-up: expressed in transfected cells; host or cells: HEK-293 (HEK:ERβ clone, with pERE-tk-Luciferase)
Method: (§1) Assessment of ER/ERE-dependent luciferase gene transcription in MCF-7:D5L (express ERα) and HEK:ERβ cells (express ERβ) and determination of ER transcriptional agonism was carried as already described. Briefly, the cells were plated in 96-well plates at a density of 12,000 cells per well in phenol-red-free MEM (MCF-7:D5L cells) or phenol-red-free DMEM (HEK:ERβ cells) supplemented with 1 μg/mL insulin and 5% DCC-FBS. […] The AUC of the isoflavonoids of each group were then expressed as % of the AUC of the respective archetypal isoflavone. Since AUC data combine the efficacy as well as the potency of cell response into a single parameter, the %AUC data were considered here as a more reliable measure of relative ER/ERE-dependent luciferase expression of the test compounds.

ERα [4] = molecular target: T1, ERα; experiment: ERE-dependent luciferase gene transcription in MCF-7:D5L cells; format: cell-based; set-up: MCF-7:D5L cells, a clone of MCF-7 cells stably transfected with an Estrogen Response Element (ERE)-endowed reporter plasmid; endogenous in cells; host or cells: MCF-7:D5L (MCF-7 clone carrying pERE-Gl-Luciferase); conditions: for Induction of ERE-dependent Luciferase Transcription (MCF-7:D5L cells) AUC (%): % of AUC of luciferase response of archetypal 3, 4, 5 or 8 up to 0.3, 10, 1.0 and 3.0 μM; for Induction of luciferase gene transcription, MCF-7:D5L cells, Agonism at 1μΜ, class: compounds 1 μM, 18 h; for Induction of ERE-dependent Luciferase Transcription (MCF-7:D5L cells) EC25E2: concentration required to achieve 25% of the effect of 0.1 nM E2
Method: as §1

HT22 cells = conditions: read-out: half maximal concentration for HT22 oxytosis inhibition; cited from earlier work
[5] = concentration required to achieve 50% of the effect of 0.1 nM E2
[6] = concentration required to achieve 50% of the effect of 0.1 nM E2, read-out: Induction of ERE-dependent Luciferase Transcription (MCF-7:D5L cells) EC50E2
[7] = isoflavonoids 1 μM; statistically significant effects

T2 sequence (Q92731 whole entry): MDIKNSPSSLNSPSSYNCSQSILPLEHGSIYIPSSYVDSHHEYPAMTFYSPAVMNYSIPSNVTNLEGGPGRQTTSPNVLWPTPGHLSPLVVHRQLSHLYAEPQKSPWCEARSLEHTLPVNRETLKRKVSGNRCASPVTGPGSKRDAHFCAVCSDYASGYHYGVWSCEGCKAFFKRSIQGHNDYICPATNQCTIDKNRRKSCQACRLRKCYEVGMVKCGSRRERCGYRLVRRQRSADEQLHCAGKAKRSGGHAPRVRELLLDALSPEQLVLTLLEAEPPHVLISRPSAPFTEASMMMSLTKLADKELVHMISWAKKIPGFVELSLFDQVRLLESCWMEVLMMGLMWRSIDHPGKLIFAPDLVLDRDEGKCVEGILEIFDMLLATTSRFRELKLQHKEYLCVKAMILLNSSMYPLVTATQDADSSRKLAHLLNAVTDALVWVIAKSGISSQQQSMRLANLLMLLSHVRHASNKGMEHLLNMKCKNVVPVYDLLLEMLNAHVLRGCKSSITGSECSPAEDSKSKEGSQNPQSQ

EC50 (Ishikawa cells; [5]) [µM] | RBAβ / RBAα (ERβ [2]) | RBAβ (ERβ [2]) | Induction of luciferase gene transcription, HEK:ERβ cells, Agonism at 1μΜ, class (ERβ [3]; compounds 1 μM; 18 h) | Induction of ERE-dependent Luciferase Transcription (MCF-7:D5L cells) AUC (%) (ERα [4]) | Induction of luciferase gene transcription, MCF-7:D5L cells, Agonism at 1μΜ, class (ERα [4]) | Induction of ERE-dependent Luciferase Transcription (MCF-7:D5L cells) EC25E2 (ERα [4]) [µM] | EC50 (ERα [4]; [6]) [µM] | Compound | Induction of Alkaline Phosphatase Expression (Ishikawa cells) AUC (%) (Ishikawa cells) | Ratio of AUC (AlkP / Lucif) (Ishikawa cells) | EC (25% of 0.1 nM E2 effect) (Ishikawa cells) [µM] | Induction of AlkP expression (Ishikawa cells) Agonism at 1μΜ, class (Ishikawa cells) | Induction of cell proliferation (MCF-7 cells) Agonism at 1μΜ, class (MCF-7 cells) | ERβ-dependent gene transcription agonist effect compared to the effect of 0.1 nM estradiol (ERβ [3]; [7]) | AlkP response higher than ERα-transcriptional response (relative AUC ratios) (Ishikawa cells) | EC50 (HT22 cells) [µM] | also measured
> 30 | 2.50 | 0.15 ± 0.04 | Marginal (⩽10%) | 0.7±0.1 | Marginal (⩽10%) | >30 | > 30 | COc1ccc(-c2coc3c(OC)c(O)ccc3c2=O)cc1 [Compound 2, 8-methoxyformononetin] | 0.5±0.2 | 0.71±0.15 | > 30 | Marginal (⩽10%) | Marginal (⩽10%) |  |  |  | RBAα (ERα [1]): 0.06 ± 0.02
7.94 ± 2.28 | 5.00 | 0.15 ± 0.05 |  | 100±14 | Marginal (⩽10%) | 3.72 ± 0.63 | 7.32 ± 2.18 | COc1cc(O)cc2occ(-c3ccc(O)cc3)c(=O)c12 [Compound 4, isoprunetin] | 94±16 | 0.94±0.03 | 3.9 ± 0.19 | Marginal (⩽10%) |  | lower than |  |  | activation at 1 µM (MCF-7 cells; Homo sapiens, MCF7, 72 h, read-out: Induction of cell proliferation (MCF-7 cells) Agonism at 1μΜ (% of 0.1nM E2)): 19 ± 6%; MCF-7 cell proliferation agonist effect compared to the effect of 0.1 nM estradiol (MCF-7 cells; isoflavonoids 1 μM, statistically significant effects): lower than; activation at 1 µM (ERβ [3]; 18 h; read-out: Induction of luciferase gene transcription through ERβ, HEK:ERβ cells, Agonism at 1μΜ (% of 0.1nM E2)): 27 ± 5%
8.23 ± 1.24 | 1.50 |  | Marginal (⩽10%) | 69±5 | Marginal (⩽10%) | 6.50 ± 1.10 | 29.8 ± 5.2 | COc1cc(OC2OC(CO)C(O)C(O)C2O)cc2occ(-c3ccc(O)cc3)c(=O)c12 (stereo not shown) [Compound 10, 7-O-glucopyranosyl-isoprunetin] | 109±8 | 1.58±0.12 | 3.48 ± 0.51 | Marginal (⩽10%) | Marginal (⩽10%) |  | ~ 40% |  | 
 |  |  |  |  |  |  |  | O=c1c(O)c(-c2ccc(O)c(O)c2)oc2cc(O)ccc12 [fisetin] |  |  |  |  |  |  |  | ≥ 3 | 
 |  |  |  |  |  |  |  | Oc1ccc(/C=C/c2cc(O)cc(O)c2)cc1 [resveratrol] |  |  |  |  |  |  |  | ≥ 3 | 

Compound | EC50 (Ishikawa cells; [5]) [µM] | RBAβ / RBAα (ERβ [2]) | RBAβ (ERβ [2]) | Induction of luciferase gene transcription, HEK:ERβ cells, Agonism at 1μΜ, class (ERβ [3]; compounds 1 μM; 18 h) | Induction of ERE-dependent Luciferase Transcription (MCF-7:D5L cells) AUC (%) (ERα [4]) | Induction of luciferase gene transcription, MCF-7:D5L cells, Agonism at 1μΜ, class (ERα [4]) | Induction of ERE-dependent Luciferase Transcription (MCF-7:D5L cells) EC25E2 (ERα [4]) [µM] | EC50 (ERα [4]; [6]) [µM] | Induction of Alkaline Phosphatase Expression (Ishikawa cells) AUC (%) (Ishikawa cells) | Ratio of AUC (AlkP / Lucif) (Ishikawa cells) | EC (25% of 0.1 nM E2 effect) (Ishikawa cells) [µM] | Induction of AlkP expression (Ishikawa cells) Agonism at 1μΜ, class (Ishikawa cells) | Induction of cell proliferation (MCF-7 cells) Agonism at 1μΜ, class (MCF-7 cells) | ERβ-dependent gene transcription agonist effect compared to the effect of 0.1 nM estradiol (ERβ [3]; [7]) | AlkP response higher than ERα-transcriptional response (relative AUC ratios) (Ishikawa cells) | EC50 (HT22 cells) [µM] | also measured
O=c1c(-c2ccc(OC3O[C@H](CO)[C@@H](O)[C@H](O)[C@H]3O)cc2)coc2c(C3O[C@H](CO)[C@@H](O)[C@H](O)[C@H]3O)c(O)cc(O)c12 (stereo partly shown) [Compound 14, 8-C,4΄-O-diglucopyranosyl-genistein] |  | 2.50 | 0.05 ± 0.02 |  | 30±13 | Marginal (⩽10%) | 3.57 ± 0.58 |  | 46±10 | 1.53±0.02 |  | Marginal (⩽10%) | Marginal (⩽10%) | lower than | ~ 40% |  | EC50 (Ishikawa cells): 6.42 ± 1.52 µM; activation at 1 µM (ERβ [3]; 18 h, read-out: Induction of luciferase gene transcription through ERβ, HEK:ERβ cells, Agonism at 1μΜ (% of 0.1nM E2)): 18 ± 1%; EC50 (ERα [4]): 7.72 ± 3.08 µM
